Measured values reported in the NIST ThermoML archive (doi:10.1021/acs.jced.8b00780).
Numbers after ± are expanded uncertainties.

Settings: Crystal; DTA

Molecule `C=C1C[C@@]23CC[C@H]4[C@@](C)(CCC[C@@]4(C)C(=O)O[C@@H]4O[C@H](CO)[C@@H](O)[C@H](O)[C@H]4O)[C@@H]2CC[C@]1(O[C@@H]1O[C@H](CO)[C@@H](O)[C@H](O[C@@H]2O[C@H](CO)[C@@H](O)[C@H](O)[C@H]2O)[C@H]1O[C@@H]1O[C@H](CO)[C@@H](O)[C@H](O)[C@H]1O)C3` [rebaudioside A] has a Normal melting temperature of 231.98 ± 1.1 °C.
